The values that follow are results of earlier work, collected in US20240173413A1, “Ultrasound Responsive Nanobubble Compositions and Methods of Production and Use Thereof” (University of Central Florida Research Foundation, lnc., priority 2021, published 2024).

Where two headings read alike, the source gives them in different places.

This series has as its system patients with postmenopausal osteoporosis. The note with it: Phase III, development terminated.

With `CC(C)(F)C[C@H](N[C@@H](c1ccc(-c2ccc(S(C)(=O)=O)cc2)cc1)C(F)(F)F)C(=O)NC1(C#N)CC1` [Odanacatib], the adverse effects entry is “increased risk of stroke”. Besides, the adverse effects result (listed as ODN) is “cardio-cerebrovascular adverse effects”.
